In PubChem BioAssay (NCI) one finds TGI and GI50 data, which are given here for two compounds.

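A five-concentration, 48-hour dose response in 96-well plates underlies each endpoint, interpolated linearly between surrounding concentrations. Here, GI50 denotes the concentration required for 50% inhibition of growth. Definition used: TGI = concentration required for complete inhibition of growth.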 Where only a bound is given, the exact number is not on record here.

Test systems include COLO 205 colon; HOP-92 NSCLC; OVCAR-3 ovarian; OVCAR-5 ovarian; PC-3 prostate; SF-539 CNS; SN12C renal; SNB-19 CNS; SW-620 colon; UACC-62 melanoma.
Assay in all cases: NCI anticancer screen, dose series, 48 h

Take `O=c1oc2ccc(-n3c(=O)c4ccccc4c4ccccc4c3=O)cc2c2ccccc12`: the TGI in the experiment on COLO 205 colon was over 100 µM; in the experiment with HOP-92 NSCLC it was 84.5 µM; in the experiment with OVCAR-3 ovarian, over 100 µM; with OVCAR-5 ovarian, over 100 µM; in the experiment with PC-3 prostate, over 100 µM; in the experiment on SF-539 CNS it was over 100 µM. Besides, the TGI with SN12C renal, with SNB-19 CNS, in the experiment with SW-620 colon and with UACC-62 melanoma was over 100 µM each time.
On to `O=C(Nc1nc2ccc(F)cc2s1)c1cccnc1Nc1ccc(Cl)cc1`, for which the GI50 was 1.72 µM with COLO 205 colon; 0.575 µM in the experiment on HOP-92 NSCLC; 2.11 µM in the experiment with OVCAR-3 ovarian; 2.64 µM with OVCAR-5 ovarian; 1.93 µM with PC-3 prostate; 2.89 µM in the experiment on SF-539 CNS. The GI50 is 2.63 µM in the experiment with SN12C renal, 3.83 µM in the experiment with SNB-19 CNS, 3.04 µM in the experiment with SW-620 colon and 2.47 µM with UACC-62 melanoma. Moreover, the TGI with COLO 205 colon is 3.48 µM; in the experiment with HOP-92 NSCLC it was 3.34 µM; in the experiment with OVCAR-3 ovarian, 9.57 µM; with OVCAR-5 ovarian, over 61.1 µM; in the experiment with PC-3 prostate it was over 27.4 µM; in the experiment with SF-539 CNS, over 27.9 µM. For the same compound, the TGI in the experiment with SN12C renal, in the experiment on SNB-19 CNS, in the experiment on SW-620 colon and with UACC-62 melanoma was over 100 µM throughout.
